In publication PMC3871595, “Structure Based Identification and Characterization of Flavonoids That Disrupt Human Papillomavirus-16 E6 Function” (PLoS ONE, 2013):

Columns and labels:
[1] = tested on: interaction between anti-FLAG antibody and the FLAG epitope in the E6AP-BAP fusion; assay: FLAG/BAP specificity filter binding assay
Method: The collection of 72 available structural-lead compounds was tested in the filter-plate based in vitro E6-E6AP binding assay. Compounds were tested twice at concentrations of 10, 50, and 100 µM. […] Compounds that disrupted the Flag-BAP interaction with the same potency as the HPV-16 E6 and E6AP interaction were classified as non-specific and eliminated from further analysis.
Figure 3 Activity of flavonoids in the in vitro binding assay. Compounds were tested in vitro for the ability to disrupt the E6-E6AP interaction. […] Percent inhibition was determined by the amount of BAP activity remaining in the well after washing and normalized to DMSO. Data was plotted by linear regression for single site binding using Prism (n=3, S.E.M.).
This interaction between E6 and hDlg occurs at the C-terminus of E6 and is independent of the interaction between E6 and the charged leucine helix in E6AP [21, 22].

Caski cells = assay: p53/p21 immunoblot analysis in Caski cells; assay type: cell-based, human; settings: 40 hours
Method: Caski cells, which are derived from an HPV-16 infected cervical carcinoma and express HPV-16 E6 and E7, were used to determine whether these compounds interfere with HPV-16 E6 function. Inhibition of E6 should block its ability to promote the degradation of p53 thereby increasing the levels of p53. […] These compounds were also assayed in telomerase immortalized human retinal epithelial cells (RPE-1). […] If the elevation in p53 is dependent on the inhibition of E6 by these compounds, p53 should not increase in the RPE-1 cells.
(§1) 20,000 cells per cm^2 were plated in 6-well dishes. Cells were incubated for 24 hours at which time fresh media and compound were added. After 40 hours, cells were harvested, washed with cold PBS, and lysed in RIPA buffer with protease inhibitor. Each sample was separated on a 12% SDS-page gel, transferred to Immobilon-P membrane (Millipore) and blotted for the p53 (DO-1, Santa Cruz), p21 (c-19, Santa Cruz), and actin (A2066, Sigma). Protein quantification was performed with the Fujifilm LAS-4000 Multifunctional Imaging System. The signal intensity was measured for each band on an immunoblot, normalized to the loading control, and the fold increase was determined in relation to the appropriate DMSO treated control. RNA was isolated from these cells using Trizol Reagent (Invitrogen 15596-026). cDNA was generated using the Improm-II Reverse Transcription System (Promega A3801). qPCR was performed as described in the protocol for SsoFast EvaGreen supermix (BioRad 172-5023) using an BioRad CFX96 real-time PCR machine. Melting curves for each reaction were obtained. Each sample was assayed in triplicate and every plate contained a 5-point cDNA dilution course to calculate amplification efficiency for each primer pair. The Pfaffl method was used to determine the change in transcript levels relative to the DMSO and normalized to GAPDH.

[2] = tested on: E6/E7 immortalized human foreskin keratinocytes; assay: p53/p21 immunoblot analysis in E6/E7 immortalized HFKs; assay type: cell-based; settings: 40 hours
Method: Each compound was used to treat primary HFKs or HFKs immortalized through the over-expression of HPV16 E6 and E7 proteins.
as §1

[3] = tested on: HPV-18 positive HeLa cells; assay: cell viability (MTS, Celltiter 96 AQueous) HeLa; assay type: cell-based, human; settings: 48 to 96 hours, relative to DMSO
Method: HPV-18 positive HeLa cells and two additional control cell lines, C33a, a cell line derived from an HPV-negative human cervical cancer isolate, and HaCat, a spontaneously immortalized human keratinocyte cell line, were used to assess compounds for their impact on cell growth and viability. All cells were incubated for 48 to 96 hours with increasing doses of compound. Cell viability was measured by MTS based assay and % viability quantified relative to cells treated with DMSO. […] This is in agreement with the lack of specificity for HPV-dependent cells observed in the p53 western results.
(§2) For cell viability, 12,000 cells per cm^2 were plated in 96-well dishes 24 hours prior to drug addition. Fresh media and compound were added. Plates were read after 72-96 hours. Relative cell viability was assayed as directed in the Celltiter 96 AQueous one solution assay (Promega). For caspase activity, plates were assayed after 4, 8, 12, 24, or 48 hours as described for the Caspase-Glo 3/7 assay (Promega).

E6/E7 HFKs = assay: cell viability (MTS, Celltiter 96 AQueous) E6/E7 HFKs; assay type: cell-based, human; settings: 48 to 96 hours, relative to DMSO
HaCat cells = assay: cell viability (MTS, Celltiter 96 AQueous) HaCat; assay type: cell-based, human; settings: HaCat (HPV negative), 48 to 96 hours, relative to DMSO
Method: HPV-18 positive HeLa cells and two additional control cell lines, C33a, a cell line derived from an HPV-negative human cervical cancer isolate, and HaCat, a spontaneously immortalized human keratinocyte cell line, were used to assess compounds for their impact on cell growth and viability. All cells were incubated for 48 to 96 hours with increasing doses of compound. Cell viability was measured by MTS based assay and % viability quantified relative to cells treated with DMSO.
as §2

[4] = tested on: RPE-1, HeLa, C33a and HaCat cells; assay: SA-beta-gal senescence assay in other cell lines; assay type: cell-based, human; settings: 72 hours
Method: This was specific to Caski cells and was not observed in RPE-1, HeLa cells, or the HPV negative control cell lines C33a and HaCat (Figures S2A,B ). […] As observed in the viability assay, this occurred in both the HPV positive and negative cell lines. […] These cell lines were also assayed for apoptosis.
12,000 cells per cm^2 were plated in 24-well dishes; after 24 hours, fresh media and compound were added. SA-beta gal staining was performed as described. Images were collected using bright field microscopy. At least four fields (~100 cells per field) were read for each treatment, and experiments were repeated 3 times. The percent SA-beta-gal positive cells was calculated for each data point.

[5] = tested on: HPV-16 E6 mediated p53 degradation; assay: in vitro HPV-16 E6 mediated p53 degradation assay; assay type: biochemical
Method: In vitro expressed p53 was incubated in rabbit reticulocyte lysate in the presence or absence of in vitro expressed HPV16 E6. p53 levels were reduced in reaction containing E6 proteins (Figure 8 ).
Control reactions (no DNA, p53 alone) were incubated with 1 µL wheat germ extract and 2% DMSO in reaction buffer. In vitro translated p53 and rabbit reticulocyte lysate (RRL, Promega) were added to all reactions except the no DNA control reaction to which wheat germ extract was added instead of p53. Reactions were incubated for 3 hrs at 30°C and stopped by addition of 6X reducing SDS sample buffer and heating at 95°C for 5 min. Each reaction was loaded onto a 10% SDS-PAGE gel and transferred onto PVDF (0.45 µm). p53 and 16E6 were visualized using monoclonal p53 (Pab1801, 1:1000), monoclonal 16E6 (813, Arbor Vita Corporation, 1:4000) antibody and anti-mouse HRP-labeled secondary antibody (1:2000, Sigma-Aldrich).

[6] = 100 µM compound pre-incubated with E6

SMILES | non-specific inhibition / specificity in FLAG-E6AP control assay [1] | p21^Cip1/Waf1 protein levels (Caski cells) | p53 protein levels (Caski cells) | p21 protein levels [2] | p53 protein levels [2] | cell growth and viability [3] | cell growth and viability (E6/E7 HFKs) | cell growth and viability (HaCat cells) | SA-β-gal staining [4] | effect on E6 mediated p53 degradation ([5]; 10 µM compound pre-incubated with E6) | effect on E6 mediated p53 degradation [5, 6]
COc1cccc(-c2cc(=O)c3cc(-c4nnn[nH]4)ccc3o2)c1 [CAF-24] | increased specificity against the FLAG and hDlg control binding reactions | concomitant induction | increased p53 levels | increased p53 and p21 protein levels | increased p53 and p21 protein levels | selectively inhibited growth | selectively inhibited growth | little effect on the viability | not observed | stabilized p53 | stabilized p53
O=c1cc(-c2ccc(O)c(O)c2)oc2cc(O)cc(O)c12 [luteolin, reference compound] | – | concomitant induction | increased p53 levels | increased p53 and p21 protein levels | increased p53 and p21 protein levels | potent inhibitor of Caski, E6/E7 HFKs, and HeLa growth | potent inhibitor of Caski, E6/E7 HFKs, and HeLa growth | – | no significant increase in β-gal staining | – | decrease in p53 was not observed
